For series [1] the following is noted: buffer, pH 7.4, 24 h.
Series [2] can be described thus: physchem. The following applies: simulated intestinal fluid, pH 6.8.
For series [3] the following is noted: buffer, 24 h.
The conditions of series [4]: buffer, 4 h.
The conditions of series [5]: buffer, pH 7.4, 4 h.
Series [6] can be described thus: physchem. Conditions: simulated gastric fluid, pH 1.2.
Series [7] in a line: physchem. The following applies: simulated intestinal fluid, pH 6.8. This is another data set of the same source.
Series [8] is described as follows: physchem. The following applies: simulated gastric fluid, pH 1.2. This is another data set of the same source.
For series [9] the following is noted: simulated gi fluid, pH 1.2, 4 h.
For series [10] the following is noted: simulated gi fluid, pH 6.8, 24 h.
The conditions of series [11]: simulated gi fluid, pH 1.2, 24 h.
The conditions of series [12]: simulated gi fluid, pH 6.8, 4 h.

Converted amounts (≈) assume the structure as drawn.

Regarding `CC(=O)Nc1ccc(O)cc1` [ACETAMINOPHEN], the “-log(solubility)” value turned out to be 2.93 in [1], 2.87 in [3], 2.7 in series [4] and 3 in series [5]. Further, the results for the solubility (thermodynamic) at 24 h in the series “physchem [2]” and in the series “physchem [6]” were 3.31 µM (≈ 0.501 µg/mL) and 1230 µM (≈ 186 µg/mL), respectively. The results for the solubility (thermodynamic) at 4 h in “physchem [7]” and in the series “physchem [8]” were 3.31 µM (≈ 0.501 µg/mL) and 1000 µM (≈ 151 µg/mL), respectively.
As for `CCCC1O[C@@H]2C[C@H]3[C@@H]4CCC5=CC(=O)C=C[C@]5(C)[C@H]4[C@@H](O)C[C@]3(C)[C@]2(C(=O)CO)O1` (stereo partly specified) [BUDESONIDE], the “-log(solubility)” value was 5.33 and the solubility amounted to 0.028 mg/mL (≈ 65 µM). The “-log(solubility)” value in series [9] is 5.03. Moreover, in series [10], the “-log(solubility)” value was 5.24. In addition, in series [11], the “-log(solubility)” value is reported as 5.07. Besides, in series [1], the “-log(solubility)” value is 5.27. For the same compound, in series [3], the “-log(solubility)” value was 5.23. Moreover, the “-log(solubility)” value in [4] was found to be 5.03. Also, in [5], the “-log(solubility)” value worked out at 5.03. Also, the “-log(solubility)” value in [12] is 5.03.
On to `NC(=O)N1c2ccccc2C=Cc2ccccc21` [CARBAMAZEPINE], for which the “-log(solubility)” value is listed as 4.29 and the solubility is 0.17 mg/mL (≈ 720 µM). Besides, in series [9], the “-log(solubility)” value is 4.07. Also, the “-log(solubility)” value in series [10] is reported as 4.85. Besides, the “-log(solubility)” value in [11] was 4.34. Also, the “-log(solubility)” value in series [1] was 4.48. Also, the “-log(solubility)” value in series [3] was determined as 4.4. For the same compound, the “-log(solubility)” value in series [4] is given as 4.07. For the same compound, in series [5], the “-log(solubility)” value is 4.47. In addition, the “-log(solubility)” value in series [12] is given as 4.28.
As for `CO[C@H]1/C=C/O[C@@]2(C)Oc3c(C)c(O)c4c(O)c(c(/C=N/N5CCN(C)CC5)c(O)c4c3C2=O)NC(=O)/C(C)=C\C=C\[C@H](C)[C@H](O)[C@@H](C)[C@@H](O)[C@@H](C)[C@H](OC(C)=O)[C@@H]1C` [RIFAMPIN], the “-log(solubility)” value stood at 4.14 in series [1], 4.21 in [3], 4.31 in series [4] and 4.01 in series [5]. Further, the thermodynamic solubility at 24 h in “physchem [2]” was 72.4 µM (≈ 59.6 µg/mL); in the series “physchem [6]” it was 95.5 µM (≈ 78.6 µg/mL). For the same compound, the thermodynamic solubility at 4 h in the series “physchem [7]” and in the series “physchem [8]” was 97.7 µM (≈ 80.4 µg/mL) in each case.

The values are drawn from ChEMBL document CHEMBL3400005, “Thermodynamic equilibrium solubility measurements in simulated fluids by 96-well plate method in early drug discovery” (Bioorg Med Chem Lett, 2015).
